Assay results: patent US10077232B2, “Cyclic cationic lipids and methods of use” (ARBUTUS BIOPHARMA CORPORATION, priority 2010, dated 2018)

Test: TNS assay, apparent pKa of cationic lipids in 1:57 SNALP
Conditions: not given

Point of comparison: `CCC1CC1CC1CC1CC1CC1CCCCCCCCC(CCCCCCCCC1CC1CC1CC1CC1CC1CC)OC(=O)CCCN(C)C` (stereo not drawn) [CP-LenMC3], pKa ~6.1. Against it:
- CCC1CC1CC1CC1CC1CC1CCCCCCCCOCC(CN(C)C)OCCCCCCCCC1CC1CC1CC1CC1CC1CC (stereo not drawn) [CP-DLenDMA] — lower, ~5.85
- CCCCCCCCC1CC1CCCCCCCCOCC(CN(C)C)OCCCCCCCCC1CC1CCCCCCCC (stereo not drawn) [CP-DODMA] — lower, ~5.8
- CCCCCC1CC1CC1CC1CC1CC1CCCCCC(CCCCCC1CC1CC1CC1CC1CC1CCCCC)OC(=O)CCCN(C)C (stereo not drawn) [CP-γ-LenMC3] — within 0.2 log units, ~6
- CCCCCC1CC1CC1CC1CC1CC1CCCCCOCC(CN(C)C)OCCCCCC1CC1CC1CC1CC1CC1CCCCC (stereo not drawn) [CP-γ-DLenDMA] — lower, ~5.8
- CCCCC/C=C\C/C=C\C/C=C\CCCCCC(CCCCC/C=C\C/C=C\C/C=C\CCCCC)OC(=O)CCCN(C)C [g-Len-MC3] — the same, ~6.1
- CCCCCCCCCCCC1CC1CCCCCOCC(CN(C)C)OCCCCCC1CC1CCCCCCCCCCC (stereo not drawn) [CP-DPetroDMA] — within 0.2 log units, ~5.95
- CCCCCC1CC1CC1CC1CCCCCCCCOCC(CN(C)C)OCCCCCCCCC1CC1CC1CC1CCCCC (stereo not drawn) [CP-DLinDMA] — lower, ~5.8

Same assay, conditions: 1:57 SNALP with encapsulated ApoB siRNA; pH where TNS fluorescence equals 50% of total

With `CCCCC/C=C\C/C=C\CCCCCCCCOCC(COCC(CCN(C)C)OCCCCCCCC/C=C\C/C=C\CCCCC)OCCCCCCCC/C=C\C/C=C\CCCCC` (stereo not drawn) [Compound C2-TLinDMA, reference compound] the “pKa (apparent, surface)” value was ~5.85.
